Molecules are shown by their SMILES. In brackets after ≈: the same amount, converted by molar mass. Read-outs that look alike come from different tables or passages of the source.

The nature of data set [1]: Equilibrium solubility in aqueous buffer (HPLC UV). The class given is physicochemical. The settings on record: thermodynamic from solid. As for the experimental part:
The equilibrium solubility of compounds was measured in aqueous buffer. Excess amount of solid compound was added into buffer solution and the sample was briefly sonicated and then shaken at rt for 24 h. The sample was filtered and the concentration was analyzed by HPLC UV. A standard solution at 0.2 mg/mL was prepared in methanol or acetonitrile for each compound and used as an external standard for quantification. The scale utilized in Tables 2 is as follows: +++ greater than 1 mg/mL; ++ between 1 and 0.1 mg/mL; and + less than 0.1 mg/mL.

In data set [2] the test system is A549 cells. The experiment in a line: Inhibition of cancer cell growth, MTT assay. The class given is cell-based. The settings on record: Homo sapiens; A549 cells, 72 h compound exposure, MTT; read-out: IC50. As for the experimental part: Inhibition of cell growth by compounds was measured using MTT assay (Mosmann, T., Journal of Immunological Methods, 1983, 65, 55-63). Tumor cell lines were purchased from ATCC (American Type Culture Collection, Manassas, Va.). All cell lines were maintained in RPMI 1640 (Hyclone) supplemented with 10% fetal bovine serum (FBS, Hyclone), glutamine (2 mM, Hyclone), and antibiotics (penicillin 100 U/mL and streptomycin 50 μg/mL) at 37° C. in a humidified atmosphere of 5% CO2 in air. Taxol (as a positive control, Sigma) and compounds were dissolved in DMSO (Sigma), and the final concentration of DMSO in the medium was 1%. Tumor cells were plated in 96-well plates at densities of about 4000 cells/well of a 96-well plate and allowed to adhere/grow for 24 h. They were then treated with various concentrations of drug for 72 h. 3-(4,5-Dimethylthiazol-2-yl)-2,5-diphenyltetrazolium bromide (MTT, Sigma) was used to determine the number of viable cells at the time of compound addition and the number of cells remaining after 72 h compound exposure. The number of cells remaining after 72 h was compared to the number of viable cells at the time of compound addition by measuring the absorbance at 570 nm, allowing for the calculation of growth inhibition.
All concentrations of compounds were tested in triplicate and controls were averaged over 4 wells. IC50 was calculated by plotting the concentration of compound vs the percentage of inhibition in treated wells using GraphPad Prism 5. […] The scale utilized in Table 3 is as follows: ++++ less than 20 nM; +++ between 20 nM and 100 nM; ++ between 100 nM and 1000 nM; and + greater than 1000 nM.
In general terms: Formazan colour is commonly taken as a measure of viable cells.

[3] abbreviates: aqueous buffer, equilibrium solubility, NaOAc/AcOH buffer (100 mM, pH 5.0), rt, 24 h, read-out: Solubility.

Broadly, the solubility is how much of the substance goes into solution per volume. As usually defined, the IC50 is the midpoint of a concentration-inhibition curve. As to `CC(C)[C@@H](N)C(=O)N(C)C1CC[C@@]2(C)[C@H](CC[C@@H]3[C@@H]2CC[C@]2(C)[C@@H](c4ccc(=O)oc4)CC[C@]32O)C1` (stereo partly drawn) [Compound C22, (2R)-2-amino-N-((5R,8R,9S,10S,13R,14S,17R)-14-hydroxy-10,13-dimethyl-17-(2-oxo-2H-pyran-5-yl)hexadecahydro-1H-cyclopenta[a]phenanthren-3-yl)-N,3-dimethylbutanamide], the solubility at 24 h in data set [1] (setting [3]) is over 1000 µg/mL. The IC50 in data set [2] fell in the range of 20 to 100 nM.
Turning to `C[C@]12CC[C@H](NC(=O)N3CCOCC3)C[C@H]1CC[C@@H]1[C@@H]2CC[C@]2(C)[C@@H](c3ccc(=O)oc3)CC[C@]12O` [Compound C02, N-((3S,5R,8R,9S,10S,13R,14S,17R)-14-hydroxy-10,13-dimethyl-17-(2-oxo-2H-pyran-5-yl)hexadecahydro-1H-cyclopenta[a]phenanthren-3-yl)morpholine-4-carboxamide], the solubility at 24 h in data set [1] (setting [3]) was under 100 µg/mL. Also, the IC50 in data set [2] is under 20 nM.
For `C[C@]12CC[C@H](NC(=O)N3CCNCC3)C[C@H]1CC[C@@H]1[C@@H]2CC[C@]2(C)[C@@H](c3ccc(=O)oc3)CC[C@]12O` [Compound C04, N-((3S,5R,8R,9S,10S,13R,14S,17R)-14-hydroxy-10,13-dimethyl-17-(2-oxo-2H-pyran-5-yl)hexadecahydro-1H-cyclopenta[a]phenanthren-3-yl)piperazine-1-carboxamide], in that order: over 1000 µg/mL and under 20 nM.
As for `C[C@]12CC[C@H](NC(=O)CN)C[C@H]1CC[C@@H]1[C@@H]2CC[C@]2(C)[C@@H](c3ccc(=O)oc3)CC[C@]12O` [Compound C12, 2-amino-N-((3S,5R,8R,9S,10S,13R,14S,17R)-14-hydroxy-10,13-dimethyl-17-(2-oxo-2H-pyran-5-yl)hexadecahydro-1H-cyclopenta[a]phenanthren-3-yl)acetamide], in data set [1] (setting [3]), the solubility at 24 h was over 1000 µg/mL. In addition, in data set [2], the 50% inhibitory concentration (IC50) is under 20 nM.
The matching figures for `C[C@]12CC[C@H](NC(=O)NCCN)C[C@H]1CC[C@@H]1[C@@H]2CC[C@]2(C)[C@@H](c3ccc(=O)oc3)CC[C@]12O` [Compound C10, 1-(2-aminoethyl)-3-((3S,5R,8R,9S,10S,13R,14S,17R)-14-hydroxy-10,13-dimethyl-17-(2-oxo-2H-pyran-5-yl)hexadecahydro-1H-cyclopenta[a]phenanthren-3-yl)urea]: over 1000 µg/mL and under 20 nM.
The matching figures for `C[C@]12CCC(N3CCNC(=O)C3)C[C@H]1CC[C@@H]1[C@@H]2CC[C@]2(C)[C@@H](c3ccc(=O)oc3)CC[C@]12O` (stereo partly drawn) [Compound C19, 4-((5R,8R,9S,10S,13R,14S,17R)-14-hydroxy-10,13-dimethyl-17-(2-oxo-2H-pyran-5-yl)hexadecahydro-1H-cyclopenta[a]phenanthren-3-yl)piperazin-2-one]: 100 to 1000 µg/mL (≈ 213 to 2130 µM) and 20 to 100 nM.
As to `C[C@]12CCC(N3CCOCC3)C[C@H]1CC[C@@H]1[C@@H]2CC[C@]2(C)[C@@H](c3ccc(=O)oc3)CC[C@]12O` (stereo partly drawn) [Compound C28, 5-((5R,8R,9S,10S,13R,14S,17R)-14-hydroxy-10,13-dimethyl-3-morpholinohexadecahydro-1H-cyclopenta[a]phenanthren-17-yl)-2H-pyran-2-one], the solubility at 24 h in data set [1] (setting [3]) was over 1000 µg/mL. Besides, in data set [2], the IC50 fell in the range of 100 to 1000 nM.
The matching figures for `CN(CCO)C1CC[C@@]2(C)[C@H](CC[C@@H]3[C@@H]2CC[C@]2(C)[C@@H](c4ccc(=O)oc4)CC[C@]32O)C1` (stereo partly drawn) [Compound C32, 5-((5R,8R,9S,10S,13R,14S,17R)-14-hydroxy-3-((2-hydroxyethyl)(methyl)amino)-10,13-dimethylhexadecahydro-1H-cyclopenta[a]phenanthren-17-yl)-2H-pyran-2-one]: under 100 µg/mL and 100 to 1000 nM.
As to `C[C@]12CCC(NCCN3CCCC3)C[C@H]1CC[C@@H]1[C@@H]2CC[C@]2(C)[C@@H](c3ccc(=O)oc3)CC[C@]12O` (stereo partly drawn) [Compound C27, 5-((5R,8R,9S,10S,13R,14S,17R)-14-hydroxy-10,13-dimethyl-3-((2-(pyrrolidin-1-yl)ethyl)amino)hexadecahydro-1H-cyclopenta[a]phenanthren-17-yl)-2H-pyran-2-one], the solubility at 24 h in data set [1] (setting [3]) was over 1000 µg/mL. For the same molecule, the IC50 in data set [2] is under 20 nM.
For `C[C@]12CCC(NCCN3CCOCC3)C[C@H]1CC[C@@H]1[C@@H]2CC[C@]2(C)[C@@H](c3ccc(=O)oc3)CC[C@]12O` (stereo partly drawn) [Compound C18, 5-((5R,8R,9S,10S,13R,14S,17R)-14-hydroxy-10,13-dimethyl-3-((2-morpholinoethyl)amino)hexadecahydro-1H-cyclopenta[a]phenanthren-17-yl)-2H-pyran-2-one], in that order: over 1000 µg/mL and 100 to 1000 nM.
For `C[C@]12CCC(NC(=O)N3CCOCC3)C[C@@]1(O)CC[C@@H]1[C@@H]2CC[C@]2(C)[C@@H](c3ccc(=O)oc3)CC[C@]12O` (stereo partly drawn) [Compound C30, N-((5S,8R,9S,10R,13R,14S,17R)-5,14-dihydroxy-10,13-dimethyl-17-(2-oxo-2H-pyran-5-yl)hexadecahydro-1H-cyclopenta[a]phenanthren-3-yl)morpholine-4-carboxamide], the solubility at 24 h in data set [1] (setting [3]) lay within 100 to 1000 µg/mL (≈ 194 to 1940 µM). Moreover, the IC50 in data set [2] fell in the range of 20 to 100 nM.
On to `C[C@@H](N)C(=O)N[C@H]1CC[C@@]2(C)[C@H](CC[C@@H]3[C@@H]2CC[C@]2(C)[C@@H](c4ccc(=O)oc4)CC[C@]32O)C1` [Compound C26, (R)-2-amino-N-((3S,5R,8R,9S,10S,13R,14S,17R)-14-hydroxy-10,13-dimethyl-17-(2-oxo-2H-pyran-5-yl)hexadecahydro-1H-cyclopenta[a]phenanthren-3-yl)propanamide], for which the solubility at 24 h in data set [1] (setting [3]) was over 1000 µg/mL. Moreover, the IC50 in data set [2] was under 20 nM.
As to `C[C@]12CCC(N3CCCC3)C[C@H]1CC[C@@H]1[C@@H]2CC[C@]2(C)[C@@H](c3ccc(=O)oc3)CC[C@]12O` (stereo partly drawn) [Compound C20, 5-((5R,8R,9S,10S,13R,14S,17R)-14-hydroxy-10,13-dimethyl-3-(pyrrolidin-1-yl)hexadecahydro-1H-cyclopenta[a]phenanthren-17-yl)-2H-pyran-2-one], the solubility at 24 h in data set [1] (setting [3]) is over 1000 µg/mL. Also, the IC50 in data set [2] was under 20 nM.
`C[C@]12CCC(NC(=O)N3CCNCC3)C[C@H]1CC[C@@H]1[C@@H]2CC[C@]2(C)[C@@H](C3=CC(=O)OC3)CC[C@]12O` (stereo partly drawn) [Compound C24, N-((5R,8R,9S,10S,13R,14S,17R)-14-hydroxy-10,13-dimethyl-17-(5-oxo-2,5-dihydrofuran-3-yl)hexadecahydro-1H-cyclopenta[a]phenanthren-3-yl)piperazine-1-carboxamide] gave a solubility at 24 h in data set [1] (pH 5, aqueous buffer) of over 1000 µg/mL. Further, in data set [2], the IC50 lay within 20 to 100 nM.

The record behind these values is US11325940B2, “Certain chemical entities, compositions, and methods” (NeuPharma, Inc., priority 2012, dated 2022).
